Test [1] deals with T1, CHOK1 cells engineered to overexpress human CCR2 (Homo sapiens, UniProt P41597).
T1 construct: expressed in transfected cells; host or cells: CHOK1
Put plainly: Antibody dependent cellular cytotoxicity (ADCC) reporter assay (Example 199). Type of test: cell-based. Conditions: with anti-cotinine antibody (SEQ ID NO: 11/12), Jurkat FcγRIIIa NFAT-luciferase reporter cells, 12-18 hours, EC50 in molar, average or individual runs; for EC50: read-out: ADCC Reporter Assay pEC50 (converted). The procedure: An antibody dependent cellular cytoxocity reporter assay was conducted using the following four assay components: (i) ARM compound of Formula (I) targeting CCR2 (concentrations ranging from […] to 10 μM) (ii) anti-cotinine antibody having a heavy chain sequence of SEQ ID NO: 11 and a light chain sequence of SEQ ID NO: 12 (rabbit variable region with human IgG1 Fc domain containing a DE mutation (S239D/1332E)) (concentrations ranging from 0.01 μg/mL to 200 μg/mL); (iii) target cells: CHOK1 cells engineered to overexpress either human CCR2 (typically 1000-20,000 cells per well) and (iv) reporter cells: Jurkat cells engineered to express FcγRIIIa with the reporter gene luciferase under the control of the NFAT promoter (typically 3000-75,000 cells per well). Reagents were combined in a final volume of 20 μL in a 384-well tissue culture treated plate. All four assay components were incubated together for about 12-18 hours. Thereafter, BioGlo Detection reagent (Promega) was added to the wells to lyse the cells and provide a substrate for the luciferase reporter protein. Luminescence signal was measured on a microplate reader and signal: background was calculated by dividing the signal of a test well by the signal obtained when no heterobivalent compound of Formula (I) was added. EC50 calculations were done using Graphpad Prism Software, specifically a nonlinear regression curve fit (Y=Bottom+(Top−Bottom)/(1+10A((LogEC50−X)*HillSlope))).
ARMs compounds of Formula (I) of the invention were tested for ADCC activity in the above assay in or more experimental runs and the results are shown in Table 3 below. Potency of the compounds of Formula (I) of the invention is reported as a pEC50 value. The pEC50 value is the negative log of the EC50 value, wherein the EC50 value is the half maximal effective concentration measured in molar (M). For compounds tested in more than one experimental run, the pEC50 value is reported as an average.
For orientation: Reporter assays use an easily measured gene product as a stand-in for the process of interest.

Test [2] has as its system endogenous target monocytes in human PBMC. Kind of test: PBMC ex vivo monocyte depletion flow cytometry assay (Example 200). Type of test: cell-based. Conditions: with anti-cotinine antibody (SEQ ID NO: 11/12), 18-24 hours, EC50 in molar, read-out: Ex Vivo Depletion Assay pEC50 (converted). The procedure, abridged: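 Monocyte depletion is reported as pEC50, averaged or given individually across runs, and read by flow cytometry staining CD45, CD14 and CD4 with a viability dye. Compounds, diluted four-fold over 11 points from 1 mM DMSO stocks, were combined with 30 μg/mL Fc-enhanced anti-cotinine antibody and human PBMC, then incubated 18-24 h at 37° C.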
(Flow cytometry measures light scatter and fluorescence of single cells or particles in a stream.)

On to `CC(C)N(C)[C@@H]1CC[C@H](N2CC[C@H](Nc3ncnc4ccc(C(F)(F)F)cc34)C2=O)[C@H](NC(=O)CCOCCOCCOCCOCCOCCNC(=O)[C@H]2CC(=O)N(C)[C@@H]2c2cccnc2)C1` [Example 40, (2S,3S)-N-(18-(((1R,2S,5R)-5-(Isopropyl(methyl)amino)-2-((S)-2-oxo-3-((6-(trifluoromethyl)quinazolin-4-yl)amino)pyrrolidin-1-yl)cyclohexyl)amino)-18-oxo-3,6,9,12,15-pentaoxaoctadecyl)-1-methyl-5-oxo-2-(pyridin-3-yl)pyrrolidine-3-carboxamide], for which the EC50 in test [1] was 6.31 nM; in test [2] it was 5.01 nM.

Take `CC(C)N(C)[C@@H]1CC[C@H](N2CC[C@H](Nc3ncnc4ccc(C(F)(F)F)cc34)C2=O)[C@H](NC(=O)CCOCCOCCOCCOCCOCCOCCNC(=O)[C@H]2CC(=O)N(C)[C@@H]2c2cccnc2)C1` [Example 41, (2S,3S)-N-(21-(((1R,2S,5R)-5-(isopropyl(methyl)amino)-2-((S)-2-oxo-3-((6-(trifluoromethyl)quinazolin-4-yl)amino)pyrrolidin-1-yl)cyclohexyl)amino)-21-oxo-3,6,9,12,15,18-hexaoxahenicosyl)-1-methyl-5-oxo-2-(pyridin-3-yl)pyrrolidine-3-carboxamide]: the EC50 in test [1] is 2 nM; in test [2], 2.51 nM.

Turning to `CC(C)N(C)[C@@H]1CC[C@H](N2CC[C@H](Nc3ncnc4ccc(C(F)(F)F)cc34)C2=O)[C@H](NC(=O)CCOCCNC(=O)[C@H]2CC[C@@H](NC(=O)COCCNC(=O)[C@H]3CC(=O)N(C)[C@@H]3c3cccnc3)CC2)C1` [Example 107, (2S,3S)-N-(2-(2-(((1S,4R)-4-((2-(3-(((1R,2S,5R)-5-(Isopropyl(methyl)amino)-2-((S)-2-oxo-3-((6-(trifluoromethyl)quinazolin-4-yl)amino)pyrrolidin-1-yl)cyclohexyl)amino)-3-oxopropoxy)ethyl)carbamoyl)cyclohexyl)amino)-2-oxoethoxy)ethyl)-1-methyl-5-oxo-2-(pyridin-3-yl)pyrrolidine-3-carboxamide], the EC50 in test [2] was 0.2 nM.

Take `CC(C)N(C)[C@@H]1CC[C@H](N2CC[C@H](Nc3ncnc4ccc(C(F)(F)F)cc34)C2=O)[C@H](NC(=O)COCCNC(=O)COCCNC(=O)COCCNC(=O)[C@H]2CC(=O)N(C)[C@@H]2c2cccnc2)C1` [Example 111, (2S,3S)-N-(17-(((1R,2S,5R)-5-(Isopropyl(methyl)amino)-2-((S)-2-oxo-3-((6-(trifluoromethyl)quinazolin-4-yl)amino)pyrrolidin-1-yl)cyclohexyl)amino)-5,11,17-trioxo-3,9,15-trioxa-6,12-diazaheptadecyl)-1-methyl-5-oxo-2-(pyridin-3-yl)pyrrolidine-3-carboxamide]: in test [2], the EC50 is 5.01 nM.

As to `CC(C)N(C)[C@@H]1CC[C@H](N2CC[C@H](Nc3ncnc4ccc(C(F)(F)F)cc34)C2=O)[C@H](NC(=O)[C@H]2CC[C@@H](NC(=O)CCCOCCCCOCCNC(=O)[C@H]3CC(=O)N(C)[C@@H]3c3cccnc3)CC2)C1` [Example 122, (2S,3S)-N-(2-(4-(4-(((1S,4s)-4-(((1R,2S,5R)-5-(Isopropyl(methyl)amino)-2-((S)-2-oxo-3-((6-(trifluoromethyl)quinazolin-4-yl)amino)pyrrolidin-1-yl)cyclohexyl)carbamoyl)cyclohexyl)amino)-4-oxobutoxy)butoxy)ethyl)-1-methyl-5-oxo-2-(pyridin-3-yl)pyrrolidine-3-carboxamide], the “ADCC Reporter Assay pEC50” value in test [1] is recorded as 9. In test [2], the EC50 was 0.794 nM.

`CC(C)N(C)[C@@H]1CC[C@H](N2CC[C@H](Nc3ncnc4ccc(C(F)(F)F)cc34)C2=O)[C@H](NC(=O)CNC(=O)[C@H]2CC[C@@H](NC(=O)CCOCCOCCNC(=O)[C@H]3CC(=O)N(C)[C@@H]3c3cccnc3)CC2)C1` [Example 137, (2S,3S)-N-(2-(2-(3-(((1S,4s)-4-((2-(((1R,2S,5R)-5-(Isopropyl(methyl)amino)-2-((S)-2-oxo-3-((6-(trifluoromethyl)quinazolin-4-yl)amino)pyrrolidin-1-yl)cyclohexyl)amino)-2-oxoethyl)carbamoyl)cyclohexyl)amino)-3-oxopropoxy)ethoxy)ethyl)-1-methyl-5-oxo-2-(pyridin-3-yl)pyrrolidine-3-carboxamide]: the EC50 in test [2] was 2 nM.

For the compound `CC(C)N(C)[C@@H]1CC[C@H](N2CC[C@H](Nc3ncnc4ccc(C(F)(F)F)cc34)C2=O)[C@H](NC(=O)[C@H]2CC[C@@H](NC(=O)CCOCCNC(=O)CCNC(=O)CCNC(=O)[C@H]3CC(=O)N(C)[C@@H]3c3cccnc3)CC2)C1` [Example 182, (2S,3S)-N-(3-((3-((2-(3-(((1S,4s)-4-(((1R,2S,5R)-5-(Isopropyl(methyl)amino)-2-((S)-2-oxo-3-((6-(trifluoromethyl)quinazolin-4-yl)amino)pyrrolidin-1-yl)cyclohexyl)carbamoyl)cyclohexyl)amino)-3-oxopropoxy)ethyl)amino)-3-oxopropyl)amino)-3-oxopropyl)-1-methyl-5-oxo-2-(pyridin-3-yl)pyrrolidine-3-carboxamide], the EC50 in test [2] was 0.158 nM.

As for `CC(C)N(C)[C@@H]1CC[C@H](N2CC[C@H](Nc3ncnc4ccc(C(F)(F)F)cc34)C2=O)[C@H](NC(=O)CCOCCC(=O)N[C@H]2C[C@@H](C(=O)NCCOCCNC(=O)[C@H]3CC(=O)N(C)[C@@H]3c3cccnc3)C2)C1` [Example 186, (2S,3S)-N-(2-(2-((1S,3R)-3-(3-(3-(((1R,2S,5R)-5-(Isopropyl(methyl)amino)-2-((S)-2-oxo-3-((6-(trifluoromethyl)quinazolin-4-yl)amino)pyrrolidin-1-yl)cyclohexyl)amino)-3-oxopropoxy)propanamido)cyclobutane-1-carboxamido)ethoxy)ethyl)-1-methyl-5-oxo-2-(pyridin-3-yl)pyrrolidine-3-carboxamide], the EC50 in test [2] was 0.316 nM.

With `CC(C)N(C)[C@@H]1CC[C@H](N2CC[C@H](Nc3ncnc4ccc(C(F)(F)F)cc34)C2=O)[C@H](NC(=O)CCOCCC(=O)N[C@H]2C[C@H](C(=O)NCCOCCNC(=O)[C@H]3CC(=O)N(C)[C@@H]3c3cccnc3)C2)C1` [Example 187], the EC50 in test [2] is 0.251 nM.

Regarding `CC(C)N(C)[C@@H]1CC[C@H](N2CC[C@H](Nc3ncnc4ccc(C(F)(F)F)cc34)C2=O)[C@H](NC(=O)CCCN2CCC3(CCN(CCCNC(=O)[C@H]4CC(=O)N(C)[C@@H]4c4cccnc4)CC3)CC2)C1` [Example 191, (2S,3S)-N-(3-(9-(4-(((1R,2S,5R)-5-(Isopropyl(methyl)amino)-2-((S)-2-oxo-3-((6-(trifluoromethyl)quinazolin-4-yl)amino)pyrrolidin-1-yl)cyclohexyl)amino)-4-oxobutyl)-3,9-diazaspiro[5.5]undecan-3-yl)propyl)-1-methyl-5-oxo-2-(pyridin-3-yl)pyrrolidine-3-carboxamide], in test [2], the EC50 was 0.501 nM.

For `CC(C)N(C)[C@@H]1CC[C@H](N2CC[C@H](Nc3ncnc4ccc(C(F)(F)F)cc34)C2=O)[C@H](NC(=O)[C@H]2CC[C@H](C(=O)NCCCOCCCCOCCCNC(=O)[C@H]3CC(=O)N(C)[C@@H]3c3cccnc3)CC2)C1` [Example 194, (1r,4R)-N^1-((1R,2S,5R)-5-(Isopropyl(methyl)amino)-2-((S)-2-oxo-3-((6-(trifluoromethyl)quinazolin-4-yl)amino)pyrrolidin-1-yl)cyclohexyl)-N^4-(3-(4-(3-((2S,3S)-1-methyl-5-oxo-2-(pyridin-3-yl)pyrrolidine-3-carboxamido)propoxy)butoxy)propyl)cyclohexane-1,4-dicarboxamide], the EC50 in test [2] was 0.631 nM.

For the origin of these results see patent US12521393B2, “Cytotoxicity targeting chimeras for CCR2-expressing cells” (GLAXOSMITHKLINE INTELLECTUAL PROPERTY DEVELOPMENT LIMITED, priority 2021, dated 2026).
